From patent US12060347B2 (BRISTOL-MYERS SQUIBB COMPANY, priority 2016, dated 2024)

Each compound was assayed against T1, human PAR4 (Homo sapiens, UniProt Q96RI0) (assay: PAR4 FLIPR assay: antagonism of agonist-peptide-induced calcium mobilization in PAR4-expressing HEK293 cells). Settings: H-Ala-Phe(4-F)-[…]NH2-induced intracellular calcium mobilization, 11-point curves.
T1 construct: expressed in transfected cells; host or cells: HEK293 PAR4 Clone 1.2A (BMS Arctic ID 383940)
T1 sequence (Q96RI0 18-385): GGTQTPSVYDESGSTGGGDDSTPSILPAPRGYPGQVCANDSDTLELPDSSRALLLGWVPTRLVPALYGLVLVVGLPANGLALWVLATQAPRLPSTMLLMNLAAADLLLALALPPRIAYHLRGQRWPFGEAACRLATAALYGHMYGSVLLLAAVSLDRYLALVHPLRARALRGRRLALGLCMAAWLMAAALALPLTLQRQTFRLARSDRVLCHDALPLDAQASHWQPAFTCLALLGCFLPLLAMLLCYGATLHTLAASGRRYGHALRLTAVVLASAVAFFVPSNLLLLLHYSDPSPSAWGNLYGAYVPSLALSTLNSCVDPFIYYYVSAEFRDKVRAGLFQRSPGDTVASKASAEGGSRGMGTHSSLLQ
Format: cell-based
`COc1cnc2c(-c3nc4cc(F)c(OCC(COCC(C)C)OC(=O)Nc5cccnc5)cc4s3)cc(C)cc2n1` (stereo not drawn) [Example 379, 1-((5-fluoro-2-(2-methoxy-7-methylquinoxalin-5-yl)benzo[d]thiazol-6-yl)oxy)-3-isobutoxypropan-2-yl pyridin-3-ylcarbamate] showed an IC50 of 1.7 nM.
With `COc1cnc2c(-c3nc4cc(F)c(OCC(COCc5ccccc5)OC(=O)Nc5cccnc5)cc4s3)cc(C)cc2n1` (stereo not drawn) [Example 380, 1-(benzyloxy)-3-((5-fluoro-2-(2-methoxy-7-methylquinoxalin-5-yl)benzo[d]thiazol-6-yl)oxy)propan-2-yl pyridin-3-ylcarbamate] the IC50 was 2.3 nM.
In the case of `COc1cnc2c(-c3nc4c(Cl)c(F)c(OCCOC(=O)Nc5csc(Cl)n5)cc4s3)cc(C)cc2n1` [Example 383, 2-((4-chloro-5-fluoro-2-(2-methoxy-7-methylquinoxalin-5-yl)benzo[d]thiazol-6-yl)oxy)ethyl (2-chlorothiazol-4-yl)carbamate], the IC50 is reported as 590 nM.
`COc1cnc2c(-c3nc4c(Cl)c(F)c(OCCOC(=O)Nc5cncs5)cc4s3)cc(C)cc2n1` [Example 384, 2-((4-chloro-5-fluoro-2-(2-methoxy-7-methylquinoxalin-5-yl)benzo[d]thiazol-6-yl)oxy)ethyl thiazol-5-ylcarbamate] showed an IC50 of 18 nM.
With `COc1cnc2c(-c3nc4c(Cl)c(F)c(OC[C@@H](C)OC(=O)Nc5ccc(CO)nc5)cc4s3)cc(C)cc2n1` [Example 385, (R)-1-((4-chloro-5-fluoro-2-(2-methoxy-7-methylquinoxalin-5-yl)benzo[d]thiazol-6-yl)oxy)propan-2-yl (6-(hydroxymethyl)pyridin-3-yl)carbamate] the IC50 was 2.3 nM.
In the case of `COc1cnc2c(-c3nc4cc(F)c(O[C@@H](C)[C@@H](C)OC(=O)Nc5cnc(C)nc5)cc4s3)cc(C)cc2n1` [Example 386, (2R,3S)-3-((5-fluoro-2-(2-methoxy-7-methylquinoxalin-5-yl)benzo[d]thiazol-6-yl)oxy)butan-2-yl (2-methylpyrimidin-5-yl)carbamate], the IC50 is reported as 7.8 nM.
For `COc1cnc2c(-c3nc4cc(F)c(O[C@@H](C)[C@@H](C)OC(=O)Nc5ccc(CCO)nc5)cc4s3)cc(C)cc2n1` [Example 387, (2R,3S)-3-((5-fluoro-2-(2-methoxy-7-methylquinoxalin-5-yl)benzo[d]thiazol-6-yl)oxy)butan-2-yl (6-(2-hydroxyethyl)pyridin-3-yl)carbamate], the IC50 was 1.5 nM.
Work on `COc1cnc2c(-c3nc4cc(F)c(O[C@@H](C)[C@@H](C)OC(=O)Nc5ccnc(OCCO)c5)cc4s3)cc(C)cc2n1` [Example 388, (2R,3S)-3-((5-fluoro-2-(2-methoxy-7-methylquinoxalin-5-yl)benzo[d]thiazol-6-yl)oxy)butan-2-yl (2-(2-hydroxyethoxy)pyridin-4-yl)carbamate] yielded an IC50 of 0.7 nM.
In the case of `CCOc1cnc2c(-c3nc4cc(F)c(O[C@@H](C)[C@@H](C)OC(=O)Nc5cnc(C)nc5)cc4s3)cc(C)cc2n1` [Example 389, (2R,3S)-3-((2-(2-ethoxy-7-methylquinoxalin-5-yl)-5-fluorobenzo[d]thiazol-6-yl)oxy)butan-2-yl (2-methylpyrimidin-5-yl)carbamate], the IC50 is reported as 0.4 nM.
In the case of `CNc1cnc2c(-c3nc4cc(F)c(O[C@@H](C)[C@@H](C)OC(=O)Nc5cnc(C)nc5)cc4s3)cc(C)cc2n1` [Example 390, (2R,3S)-3-((5-fluoro-2-(7-methyl-2-(methylamino)quinoxalin-5-yl)benzo[d]thiazol-6-yl)oxy)butan-2-yl (2-methylpyrimidin-5-yl)carbamate], the IC50 is reported as 3.6 nM.
For `COc1cnc2c(-c3nc4c(Cl)c(F)c(OCCOC(=O)Nc5ccc(C#N)nc5)cc4s3)cc(C)cc2n1` [Example 395, 2-((4-chloro-5-fluoro-2-(2-methoxy-7-methylquinoxalin-5-yl)benzo[d]thiazol-6-yl)oxy)ethyl (6-cyanopyridin-3-yl)carbamate], the IC50 was 5.8 nM.
`COc1cnc2c(-c3nc4c(Cl)c(F)c(OCCOC(=O)NCc5ccccn5)cc4s3)cc(C)cc2n1` [Example 396, 2-((4-chloro-5-fluoro-2-(2-methoxy-7-methylquinoxalin-5-yl)benzo[d]thiazol-6-yl)oxy)ethyl (pyridin-2-ylmethyl)carbamate] gave an IC50 of 4.6 nM.
In the case of `COc1cnc2c(-c3nc4c(Cl)c(F)c(OCCOC(=O)NCc5cn(C)cn5)cc4s3)cc(C)cc2n1` [Example 397, 2-((4-chloro-5-fluoro-2-(2-methoxy-7-methylquinoxalin-5-yl)benzo[d]thiazol-6-yl)oxy)ethyl ((1-methyl-1H-imidazol-4-yl)methyl)carbamate], the IC50 is reported as 210 nM.
`COc1cnc2c(-c3nc4c(Cl)c(F)c(OCCOC(=O)NCc5ccn(C)n5)cc4s3)cc(C)cc2n1` [Example 398, 2-((4-chloro-5-fluoro-2-(2-methoxy-7-methylquinoxalin-5-yl)benzo[d]thiazol-6-yl)oxy)ethyl ((1-methyl-1H-pyrazol-3-yl)methyl)carbamate] showed an IC50 of 8.6 nM.
Work on `COc1cnc2c(-c3nc4c(Cl)c(F)c(OCCOC(=O)NCc5cnn(C)c5)cc4s3)cc(C)cc2n1` [Example 399, 2-((4-chloro-5-fluoro-2-(2-methoxy-7-methylquinoxalin-5-yl)benzo[d]thiazol-6-yl)oxy)ethyl ((1-methyl-1H-pyrazol-4-yl)methyl)carbamate] yielded an IC50 of 3.9 nM.
`COc1cnc2c(-c3nc4c(Cl)c(F)c(OC[C@@H](C)OC(=O)Nc5cnc(C#N)nc5)cc4s3)cc(C)cc2n1` [Example 400, (R)-1-((4-chloro-5-fluoro-2-(2-methoxy-7-methylquinoxalin-5-yl)benzo[d]thiazol-6-yl)oxy)propan-2-yl (2-cyanopyrimidin-5-yl)carbamate] gave an IC50 of 2 nM.
For `COc1cnc2c(-c3nc4c(Cl)c(F)c(OC[C@@H](C)OC(=O)Nc5cnc(Cl)nc5)cc4s3)cc(C)cc2n1` [Example 401, (R)-1-((4-chloro-5-fluoro-2-(2-methoxy-7-methylquinoxalin-5-yl)benzo[d]thiazol-6-yl)oxy)propan-2-yl (2-chloropyrimidin-5-yl)carbamate], the IC50 was 2.7 nM.
Work on `COc1cnc2c(-c3nc4c(Cl)c(F)c(OC[C@@H](C)OC(=O)Nc5cnc(F)c(C)c5)cc4s3)cc(C)cc2n1` [Example 402, (R)-1-((4-chloro-5-fluoro-2-(2-methoxy-7-methylquinoxalin-5-yl)benzo[d]thiazol-6-yl)oxy)propan-2-yl (6-fluoro-5-methylpyridin-3-yl)carbamate] yielded an IC50 of 3.7 nM.
Work on `COc1cnc2c(-c3nc4c(Cl)c(F)c(OC[C@@H](C)OC(=O)Nc5ccc(Br)nc5)cc4s3)cc(C)cc2n1` [Example 403, (R)-1-((4-chloro-5-fluoro-2-(2-methoxy-7-methylquinoxalin-5-yl)benzo[d]thiazol-6-yl)oxy)propan-2-yl (6-bromopyridin-3-yl)carbamate] yielded an IC50 of 1.7 nM.
`COc1cnc2c(-c3nc4c(Cl)c(F)c(O[C@@H](C)[C@@H](C)OC(=O)Nc5cccnc5)cc4s3)cc(C)cc2n1` [Example 404, (2R,3S)-3-((4-chloro-5-fluoro-2-(2-methoxy-7-methylquinoxalin-5-yl)benzo[d]thiazol-6-yl)oxy)butan-2-yl pyridin-3-ylcarbamate] gave an IC50 of 2.2 nM.
Compound `COc1cnc2c(-c3nc4cc(F)c(O[C@@H](C)[C@@H](C)OC(=O)Nc5ccc(C)nc5)cc4s3)cc(C)cc2n1` [Example 405, (2R,3S)-3-((5-fluoro-2-(2-methoxy-7-methylquinoxalin-5-yl)benzo[d]thiazol-6-yl)oxy)butan-2-yl (6-methylpyridin-3-yl)carbamate] has an IC50 of 1.9 nM.
